Patent publication US12648925B2, “Composition for preventing or treating cancer, containing manassantin A and immune checkpoint inhibitor or epithelial growth factor receptor inhibitor” (KYUNGPOOK NATIONAL UNIVERSITY INDUSTRY-ACADEMIC COOPERATION …, priority 2019, dated 2026)

System: Lewis lung carcinoma (LLC)
Experiment: Hypoxic state (hypoxyprobe-1/PIMO) and CD31 microvessel density by immunohistochemistry in LLC allograft tumor
Assay type: in vivo, C57BL/6J mouse
Settings: 2 mg/kg intraperitoneal on day 2, 4, 6, 8, 10; tumor extracted day 17; vs PBS control; FIG. 1
Protocol: As a control, the same amount of phosphate buffered saline (PBS) was injected. In addition, to measure a hypoxic state inside the tumor on day 17, 60 mg/kg of hypoxyprobe-1™ (pimonidazole hydrochloride; PIMO, HPI) was administered by intraperitoneal injection, and after 90 minutes, the mouse was sacrificed to extract the tumor. In addition, immunohistochemistry (HC) analyses were performed using the obtained tumor tissue. More particularly, the obtained tumor was fixed with 3.7% paraformaldehyde (PFA) and then dehydrated by treatment with a 10 to 40% sucrose solution step by step. In addition, after increasing the osmotic permeability of cells by treatment with 0.3% Triton X-100 and blocking with 5% bovine serum albumin (BSA), a rat anti-CD31 (BD Biosciences) or Alexa Fluor 647-conjugated anti-HIF-1 alpha antibody (Abcam) was treated and reacted at 4° C. for 16 hours. The mouse treated with the HIF-1 alpha antibody was a mouse which was not treated with hypoxyprobe-1™. […] In addition, finally, a cell nucleus was stained with DAPI (Sigma-Aldrich) and observed using a confocal microscope, followed by quantifying a fluorescent value using ImageJ. […]

SMILES: COc1ccc([C@@H](O)[C@@H](C)Oc2ccc([C@H]3O[C@H](c4ccc(O[C@H](C)[C@H](O)c5ccc(OC)c(OC)c5)c(OC)c4)[C@H](C)[C@H]3C)cc2OC)cc1OC [manassantin A]
- hypoxic state inside the tumor: significantly reduced
- microvessel density (MVD) of CD31-positive vascular endothelial cells: significantly reduced
